Assay results as given in patent US7153886B2, “Method for treatment of peripheral inflammation of a loop ileal artificial anus” (Tanabe Seiyaku Co., Ltd., priority 1999, dated 2006).
“Also recorded” adds a separate entry of the source. Where a name gives a salt, the structure may show the parent alone.

Key:
[1] = compared with the disodium salt; cited from earlier work
[2] = system: acute hemorrhagic rectal ulcer; assay: Clinical effects in acute hemorrhagic rectal ulcer (Experiments 8-10); format: in vivo, human patient
Experimental: The patient was a person, who was hospitalized for treatment of HCV-associated hepatocirrhosis, hepatocellular carcinoma and esophageal varices. After the endoscopic ossification treatment for the esophageal varices was done, an acute hemorrhagic rectal ulcer appeared at whole of the lower rectum. The patient was treated with total parenteral nutrition for 52 days, but the conditions were not improved. Ecabet sodium was administered to the patient mentioned above. That is, Ecabet sodium-containing granules (1.5 g) were suspended in water, and the resultant was injected through the anus twice a day for about 1.5 month. […] The patient was a person, who was hospitalized for treatment of the right thighbone break. During the treatment thereof, an acute hemorrhagic rectal ulcer occurred at whole of the lower rectum. The patient was treated with total parenteral nutrition, but the conditions were not improved. Ecabet sodium was administered to the patient mentioned above. That is, Ecabet sodium-containing granules (1.5 g) were suspended in water, and the resultant was injected through the anus twice a day for about 2.5 months. […] The patient was a person, who was hospitalized for treatment of pancreatic cancer. During the treatment, an acute hemorrhagic rectal ulcer appeared at whole of the lower rectum. Ecabet sodium was administered to the patient mentioned above. That is, Ecabet sodium-containing granules (1.5 g) were suspended in water, and the resultant was injected through the anus twice a day for about 1 month.

[3] = system: large and small intestine Crohn's disease; assay: Clinical effects in a patient of Crohn's disease; format: in vivo, human patient; settings: person; one year after the start of the administration
Experimental: The patient was a person, whose illness was diagnosed from the pathological data as large and small intestine Crohn's disease. The exacerbation and the remission were mutually repeated, and the patient was treated with a conventional medicine, but the exacerbation of the anal lesion and the bleeding at the intestine could not be controlled. Although a surgical excision of the lesion was considered, the area of the lesion was so large that it could not be excised, and therefore, a loop ileal artificial anus was installed for administration of Ecabet sodium. Ecabet sodium was administered to the patient mentioned above. That is, Ecabet sodium-containing granules (1.5 g) were pulverized in a mortar, suspended in water, and the resultant was directly administered into the intestine through the artificial anus once a day.

[4] = system: TNBS-induced enteritis; mucosal injury of the intestine induced by acetic acid; assay: Effect on TNBS-induced enteritis (followed by acetic acid); format: in vivo, Fischer rats
Experimental: Ecabet sodium of the active ingredient of the present invention was administered to Fischer rats to which TNBS was previously intra-intestinally injected to induce chronic enteritis, and further acetic acid was administered to the rats. Prophylactic or therapeutic effect of Ecabet sodium on the mucosal injury of the intestine induced by acetic acid was studied.
Namely, a solution of TNBS (2,4,6-trinitrobenzenesulfonic acid) in 50% ethanol was injected intra-intestinally to Fischer rats at a dose of 50 mg per 1 kg of the body weight to give the TNBS-induced enteritis. Three weeks thereafter, Ecabet sodium-containing granules (0.5 g) was suspended in a physiological saline, and the mixture was administered intra-rectally to the rats. Thirty minutes thereafter, a 25% acetic acid solution was intra-rectally injected to the rats, and two hours after the acetic acid administration, the intestine was excised from the rats, and the intestinal mucosal injury thereof was scored and evaluated both macroscopically and histologically in the same manner as in Experiment 1 according to the Macpherson's method for Classification and Evaluation. In the control group, the same procedures were repeated except for that a physiological saline was administered instead of a suspension of Ecabet sodium-containing granules in a physiological saline.

[5] = system: left-sided colon ulcerative colitis; assay: Clinical effects in ulcerative colitis (Experiments 5-7); format: in vivo, human patient
Experimental: The patient was a person, whose illness was diagnosed as left-sided colon ulcerative colitis. The patient was medicated with mesalazine and a steroid, and treated with leukocytapheresis, but the rectal lesion was remained, and the symptoms were not improved any further. The inflammation was scored as Matts Grade 3 (Quarterly Journal of Medicine, New Series, No. 120, October 1961), and it was so frail that it bled when the endoscopic examination was carried out.
(§1) Ecabet sodium was administered to the patient mentioned above. That is, Ecabet sodium-containing granules (1.5 g) were pulverized in a mortar, suspended in a physiological saline (20 ml), and the resultant was rectally administered through the anus twice a day. After the administration, the inflammation was remitted to Matts Grade 2, and the inflammation area was decreased.
The patient was a person, whose illness was diagnosed as left-sided colon ulcerative colitis. The patient was medicated with mesalazine, predonine and a steroid, by which the inflammation was controlled to a degree of disseminated ulcer at the rectum, but further improvement was not obtained.
as §1, with “ulcer” for “inflammation”, “improved into a red scar.” for “remitted to Matts Grade 2, and the inflammation area was decreased.”
The patient was a person, whose illness was diagnosed as left-sided colon ulcerative colitis. The patient was medicated with salazosulfapyridine and predonine, and treated with leukocytapheresis, but the inflammation condition at the rectum could not be controlled, and the bleeding and the melena lasted.
Ecabet sodium was administered to the patient mentioned above. That is, Ecabet sodium-containing granules (1.5 g) were pulverized in a mortar, suspended in a physiological saline (20 ml), and the resultant was rectally administered through the anus twice a day.

[6] = system: ileum pouchitis accompanying with acute hemorrhagic ulcer; assay: Clinical effects in ileum pouchitis; format: in vivo, human patient; settings: Experiment 11, person; granules 1.5 g in water through the anus twice a day for about 4 months
Experimental: The patient was a person. During the postoperative treatment, ileum pouchitis accompanying with acute hemorrhagic ulcer appeared at the ileum pouch which was subjected to ileal pouch/anal anastomosis by the operation for ulcerative colitis. Ecabet sodium was administered to the patient mentioned above. That is, Ecabet sodium-containing granules (1.5 g) were suspended in water, and the resultant was injected through the anus twice a day for about 4 months.

[7] = system: intestinal Behçet's disease; assay: Clinical effects in a patient of Behçet's disease; format: in vivo, human patient; settings: person
Excerpt: The patient was a person, whose illness had been diagnosed as intestinal Behçet's disease accompanying with the multiple ulcerative lesion at the small intestine, and who had been medically treated (i.e., administration of a steroid, etc.). Then, the patient was operated surgically twice to excise the intestine on account of massive melena and regional peritonitis but the lesion of the remaining intestine was exacerbated, and further ileus, melena, and peritonitis symptoms caused by anastomotic recrudescence appeared. In order to excise the injured intestine, the abdomen of the patient was incised, but the injured area was so large that the intestine could not be excised, so that a loop ileal artificial anus was installed for administration of Ecabet sodium.
Ecabet sodium was administered to the patient mentioned above. That is, Ecabet sodium-containing granules (1.5 g) were orally administered twice a day. Further, said granules (1.5 g) were pulverized in a mortar, suspended in water, and the resultant was directly administered into the intestine through the artificial anus twice a day. After the administration of Ecabet sodium, the pain and the melena disappeared in a several days.

[8] = system: intestinal mucosal injury induced by intra-intestinal infusion of acetic acid; assay: Prophylactic or therapeutic effect on acetic acid-induced intestinal injury; format: in vivo; settings: Fischer rats
Excerpt: Sulfodehydroabietic acid monosodium salt […] (hereinafter referred to as Ecabet sodium) of the active ingredient of the present invention was previously administered to Fischer rats, and the prophylactic or therapeutic effect thereof on intestinal mucosal injury induced by intra-intestinal infusion of acetic acid was studied. Namely, granules containing Ecabet sodium (0.5 g, trade name: Gastrome granule, containing 1.0 g of Ecabet sodium per 1.5 g, hereinafter simply referred to as Ecabet sodium-containing granules) were suspended in a physiological saline, and the mixture was injected intra-rectally to Fischer rats. One hour thereafter, a 25% acetic acid solution was intra-rectally injected to the rats. Two hours after the administration of acetic acid, the intestine was excised from the rats, and the histopathological changes in the surface of the intestinal inner wall was observed visually and with a microscope, and the injury of the intestinal mucosa was evaluated both macroscopically and histologically. In the control group, the same procedures were repeated except for that a physiological saline was administered instead of a suspension of Ecabet sodium-containing granules in a physiological saline. […] In addition, the degree of the intestine mucosal injury between the physiological saline-treated group and the Ecabet sodium-treated group was scored and compared according to the criteria as mentioned below, which was based on the method for Classification and Evaluation of Macpherson, B. R. et al., Digestion, 17, p. 135–150 (1978). The data is indicated in Table 1. • (1) Scoring criteria of degree of macroscopic injury: [table] • (2) Scoring criteria of degree of histological injury: [table]

[9] = Fischer rats 3 weeks after TNBS 50 mg/kg, granules 0.5 g intra-rectally 30 min before 25% acetic acid, 2 h after acetic acid, P < 0.05 vs saline
[10] = Ecabet sodium-containing granules 0.5 g in saline intra-rectally 1 h before 25% acetic acid, intestine excised 2 h after acetic acid, mean ± s.e. of sum of scores (0-3) of 4 items

For `CC(C)c1cc2c(cc1S(=O)(=O)[O-])[C@@]1(C)CCC[C@@](C)(C(=O)O)[C@@H]1CC2.[Na+]` [Sulfodehydroabietic acid monosodium salt], the hygroscopicity [1] is given as “less hygroscopic” and the stability [1] is given as “more stable”.

For `CC(C)c1cc2c(cc1S(=O)(=O)O)[C@@]1(C)CCC[C@@](C)(C(=O)O)[C@@H]1CC2` [Ecabet sodium, (+)-(1R,4aS,10aR)-1,2,3,4,4a,9,10,10a-octahydro-1,4a-dimethyl-7-(1-methylethyl)-6-sulfo-1-phenanthrenecarboxylic acid 6-sodium salt pentahydrate], the “acute hemorrhagic rectal ulcer outcome” value ([2]; Experiment 8, person, granules 1.5 g in water through the anus twice a day for about 1.5 month) was “cured without any cicatricial stenosis”, the “acute hemorrhagic rectal ulcer outcome” value ([2]; Experiment 9, person, granules 1.5 g in water through the anus twice a day for about 2.5 months) was “cured without any cicatricial stenosis” and the “acute hemorrhagic rectal ulcer outcome” value ([2]; Experiment 10, person, granules 1.5 g in water through the anus twice a day for about 1 month) was “cured without any cicatricial stenosis”. For the same compound, the “injury of the intestinal mucosa (endoscope)” value [3] was “disappeared”, the “Degree of Histological Injury” value [4, 9] was 4.6 ± 0.4 and the “Degree of Macroscopic Injury” value [4, 9] was 3.9 ± 0.3. For the same compound, the “intestinal mucosal injury (observation)” value ([4]; TNBS-enteritis Fischer rats, versus physiological saline-treated rats) was “effectively inhibited”, the “Inflammation, Matts Grade, after the administration” value ([5]; Experiment 5, person, granules 1.5 g in saline 20 ml rectally twice a day, Matts Grade 3 before) was “Grade 2” and the “Area of inflammation after the administration” value ([5]; Experiment 5, person, granules 1.5 g rectally twice a day) was “decreased; also recorded: reduced”. The “inflammation of the intestine tissue at the lesion (endoscope)” value ([5]; Experiment 5, 11 days after the start of the administration) was “remarkably improved”, the “ulcer at the rectum after the administration (endoscope)” value ([5]; Experiment 6, person, granules 1.5 g in saline 20 ml rectally twice a day, 18 days, intractable ulcer before) was “turned into a red scar; also recorded: Improvement into a red” and the “inflammation condition after the administration” value ([5]; Experiment 7, person, granules 1.5 g in saline 20 ml rectally twice a day, mild to moderate inflammation before) was “only a slight erythema was remained; also recorded: Improvement into a slight”. For the same compound, the “inflammation of the lesion (endoscope)” value ([5]; Experiment 7, 12 days after the start of the administration) was “almost disappeared”, the “ileum pouchitis and ulcer outcome” value [6] was “cured without any cicatricial stenosis” and the “ulcerative lesion in the endoscopic finding” value ([7]; 2 weeks after the start of the administration) was “remarkably improved”. The recrudescence ([7]; 7 months after the start of the administration) was “has not been observed”, the pain and melena ([7]; granules 1.5 g orally twice a day plus 1.5 g through artificial anus twice a day, in a several days) was “disappeared” and the “Degree of Histological Injury” value [8, 10] was 2.3 ± 0.4. The “Degree of Macroscopic Injury” value [8, 10] was 1.3 ± 0.2 and the “intestinal mucosal injury induced by acetic acid (observation)” value ([8]; versus physiological saline-treated rats (injury broadly observed)) was “hardly observed”.
